Several values for one entry are separate records, joined by “and”; a condition that tells them apart may be missing. Equal entries are not always repeated. Where two headings read alike, the source gives them in different places.
Experiments:
Test in all cases: SelectScreen kinase panel screening
Type in all cases: biochemical
TEK (Tie2) = TEK (Tie2) (Homo sapiens (Human), UniProt Q02763)
Text: (§1) The complete list of the kinases given in Table 1 and their details can be found on the ThermoFisher website for Biochemical Kinase assays (thermofisher.com/us/en/home/industrial/pharma-biopharma/drug-discovery-development/target-and-lead-identification-and-validation/kinasebiology.html).

JAK1 = JAK1 (Homo sapiens (Human), UniProt P23458)
Text: as §1

FGFR4 = FGFR4 (Homo sapiens (Human), UniProt P22455)
Text: as §1

EPHB2 = EPHB2 (Homo sapiens (Human), UniProt P29323)
Text: as §1

EPHA1 = EPHA1 (Homo sapiens (Human), UniProt P21709)
Text: as §1

[1] = target: MAPK14 (p38 alpha) Direct (Homo sapiens (Human), UniProt Q16539)
Text: as §1

AURKB (Aurora B) = AURKB (Aurora B) (Homo sapiens (Human), UniProt Q96GD4)
Text: as §1

FYN = FYN (Homo sapiens (Human), UniProt P06241)
Text: as §1

JAK2 JH1 JH2 = JAK2 JH1 JH2 (Homo sapiens (Human), UniProt O60674)
Text: as §1

HCK = HCK (Homo sapiens (Human), UniProt P08631)
Text: as §1

GSG2 (Haspin) = GSG2 (Haspin) (Homo sapiens (Human), UniProt Q8TF76)
Text: as §1

RAF1 (cRAF) Y340D Y341D = RAF1 (cRAF) Y340D Y341D (Homo sapiens (Human), UniProt P04049, Y340D/Y341D)
Text: as §1

BRAF = BRAF (Homo sapiens (Human), UniProt P15056)
Text: as §1

FLT1 (VEGFR1) = FLT1 (VEGFR1) (Homo sapiens (Human), UniProt P17948)
Text: as §1

FGFR1 = FGFR1 (Homo sapiens (Human), UniProt P11362)
Text: as §1

JAK2 = JAK2 (Homo sapiens (Human), UniProt O60674)
Text: as §1

TYRO3 (RSE) = TYRO3 (RSE) (Homo sapiens (Human), UniProt Q06418)
Text: as §1

YES1 = YES1 (Homo sapiens (Human), UniProt P07947)
Text: as §1

SRC = SRC (Homo sapiens (Human), UniProt P12931)
Text: as §1

CHEK2 (CHK2) = CHEK2 (CHK2) (Homo sapiens (Human), UniProt O96017)
Text: as §1

IKBKB (IKK beta) = IKBKB (IKK beta) (Homo sapiens (Human), UniProt O14920)
Text: as §1

CSNK1E (CK1 epsilon) = CSNK1E (CK1 epsilon) (Homo sapiens (Human), UniProt P49674)
Text: as §1

MET (cMet) = MET (cMet) (Homo sapiens (Human), UniProt P08581)
Text: as §1

AKT1 (PKB alpha) = AKT1 (PKB alpha) (Homo sapiens (Human), UniProt P31749)
Text: as §1

AKT2 (PKB beta) = AKT2 (PKB beta) (Homo sapiens (Human), UniProt P31751)
Text: as §1

CSF1R (FMS) = CSF1R (FMS) (Homo sapiens (Human), UniProt P07333)
Text: as §1

BRAF V599E = BRAF V599E (Homo sapiens (Human), UniProt P15056, V600E)
Text: as §1

NEK2 = NEK2 (Homo sapiens (Human), UniProt P51955)
Text: as §1

CDK5/p25 = CDK5/p25 (Homo sapiens (Human), UniProt Q00535)
Text: as §1

MST4 = MST4 (Homo sapiens (Human), UniProt Q9P289)
Text: as §1

CHEK1 (CHK1) = CHEK1 (CHK1) (Homo sapiens (Human), UniProt O14757)
Text: as §1

Chain of GSG2 (Haspin) (Q8TF76 whole entry): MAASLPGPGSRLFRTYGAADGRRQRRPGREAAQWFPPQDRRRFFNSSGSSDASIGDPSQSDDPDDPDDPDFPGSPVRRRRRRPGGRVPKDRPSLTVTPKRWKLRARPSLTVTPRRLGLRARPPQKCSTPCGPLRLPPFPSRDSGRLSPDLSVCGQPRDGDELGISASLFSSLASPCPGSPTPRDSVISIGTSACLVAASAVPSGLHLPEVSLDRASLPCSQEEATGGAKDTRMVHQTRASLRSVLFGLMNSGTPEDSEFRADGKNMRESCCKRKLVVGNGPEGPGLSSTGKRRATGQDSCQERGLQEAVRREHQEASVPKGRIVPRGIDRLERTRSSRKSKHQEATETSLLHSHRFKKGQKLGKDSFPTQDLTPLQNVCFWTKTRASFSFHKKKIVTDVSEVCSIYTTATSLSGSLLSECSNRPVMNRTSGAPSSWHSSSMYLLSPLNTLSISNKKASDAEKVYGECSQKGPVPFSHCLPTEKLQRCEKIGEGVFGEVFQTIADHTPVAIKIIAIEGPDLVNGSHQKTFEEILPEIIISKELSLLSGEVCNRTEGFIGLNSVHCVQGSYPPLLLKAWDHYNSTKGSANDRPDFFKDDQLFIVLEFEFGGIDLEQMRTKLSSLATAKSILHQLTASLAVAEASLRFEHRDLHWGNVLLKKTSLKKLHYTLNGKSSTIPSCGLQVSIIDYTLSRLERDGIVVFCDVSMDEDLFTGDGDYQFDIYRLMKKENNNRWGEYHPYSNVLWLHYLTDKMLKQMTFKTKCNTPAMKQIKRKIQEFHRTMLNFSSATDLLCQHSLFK
Chain of JAK1 (P23458 whole entry): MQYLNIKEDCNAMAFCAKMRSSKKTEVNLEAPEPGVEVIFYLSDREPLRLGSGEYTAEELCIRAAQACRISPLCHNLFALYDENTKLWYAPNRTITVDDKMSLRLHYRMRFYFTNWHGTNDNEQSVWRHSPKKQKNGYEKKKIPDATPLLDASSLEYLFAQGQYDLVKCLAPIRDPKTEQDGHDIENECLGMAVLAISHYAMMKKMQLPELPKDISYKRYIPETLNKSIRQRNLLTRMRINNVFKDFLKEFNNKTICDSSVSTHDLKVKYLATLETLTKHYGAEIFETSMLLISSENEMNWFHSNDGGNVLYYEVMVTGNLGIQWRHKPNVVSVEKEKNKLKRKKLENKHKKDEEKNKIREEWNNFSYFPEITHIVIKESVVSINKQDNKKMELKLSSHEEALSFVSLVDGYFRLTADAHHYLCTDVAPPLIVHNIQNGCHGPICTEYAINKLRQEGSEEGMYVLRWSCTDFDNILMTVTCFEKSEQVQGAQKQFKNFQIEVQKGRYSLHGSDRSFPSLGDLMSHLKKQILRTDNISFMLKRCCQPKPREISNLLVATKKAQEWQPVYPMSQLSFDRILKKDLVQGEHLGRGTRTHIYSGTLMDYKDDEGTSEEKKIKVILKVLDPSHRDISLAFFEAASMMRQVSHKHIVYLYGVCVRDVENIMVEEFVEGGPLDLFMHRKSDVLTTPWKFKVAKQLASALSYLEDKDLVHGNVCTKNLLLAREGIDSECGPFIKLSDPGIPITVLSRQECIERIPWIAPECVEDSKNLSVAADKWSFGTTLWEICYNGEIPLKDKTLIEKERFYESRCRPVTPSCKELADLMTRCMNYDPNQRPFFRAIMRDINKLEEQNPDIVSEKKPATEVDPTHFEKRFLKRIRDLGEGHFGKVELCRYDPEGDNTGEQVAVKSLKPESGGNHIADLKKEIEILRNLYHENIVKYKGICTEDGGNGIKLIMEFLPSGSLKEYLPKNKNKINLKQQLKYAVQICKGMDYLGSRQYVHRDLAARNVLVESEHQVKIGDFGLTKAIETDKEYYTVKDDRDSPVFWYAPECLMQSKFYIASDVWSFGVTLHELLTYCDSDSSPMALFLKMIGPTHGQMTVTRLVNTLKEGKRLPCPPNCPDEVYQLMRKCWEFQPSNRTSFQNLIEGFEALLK
Chain of CSNK1E (CK1 epsilon) (P49674 whole entry): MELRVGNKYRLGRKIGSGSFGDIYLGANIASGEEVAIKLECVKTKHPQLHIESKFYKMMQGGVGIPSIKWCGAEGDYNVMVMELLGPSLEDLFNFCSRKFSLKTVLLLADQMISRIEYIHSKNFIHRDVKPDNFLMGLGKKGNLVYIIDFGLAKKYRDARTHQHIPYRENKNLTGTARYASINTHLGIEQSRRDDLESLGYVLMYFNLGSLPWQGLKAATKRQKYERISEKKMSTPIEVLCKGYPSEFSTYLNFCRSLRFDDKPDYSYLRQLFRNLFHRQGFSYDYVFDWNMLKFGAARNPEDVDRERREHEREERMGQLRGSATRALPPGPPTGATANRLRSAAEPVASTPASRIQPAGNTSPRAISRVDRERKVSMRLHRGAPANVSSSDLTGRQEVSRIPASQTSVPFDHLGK
Chain of RAF1 (cRAF) Y340D Y341D (P04049 whole entry Y340D/Y341D): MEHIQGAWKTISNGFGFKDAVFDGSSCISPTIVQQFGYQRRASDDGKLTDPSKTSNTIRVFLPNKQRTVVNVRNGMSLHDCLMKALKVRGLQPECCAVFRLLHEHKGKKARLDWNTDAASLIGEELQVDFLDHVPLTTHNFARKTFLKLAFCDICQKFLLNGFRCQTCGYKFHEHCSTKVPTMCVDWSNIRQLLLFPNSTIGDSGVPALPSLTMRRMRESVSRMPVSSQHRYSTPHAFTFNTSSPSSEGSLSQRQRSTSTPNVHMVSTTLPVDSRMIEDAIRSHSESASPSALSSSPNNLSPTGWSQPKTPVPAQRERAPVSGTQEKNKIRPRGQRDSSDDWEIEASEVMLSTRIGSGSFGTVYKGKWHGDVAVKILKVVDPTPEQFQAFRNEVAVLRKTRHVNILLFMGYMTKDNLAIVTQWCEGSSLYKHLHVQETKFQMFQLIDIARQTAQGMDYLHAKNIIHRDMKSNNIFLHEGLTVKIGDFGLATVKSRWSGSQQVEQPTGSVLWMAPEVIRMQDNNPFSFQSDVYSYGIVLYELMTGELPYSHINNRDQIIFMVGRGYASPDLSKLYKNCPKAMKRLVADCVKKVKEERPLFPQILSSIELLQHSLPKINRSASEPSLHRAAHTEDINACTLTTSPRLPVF
Chain of FGFR4 (P22455 22-802): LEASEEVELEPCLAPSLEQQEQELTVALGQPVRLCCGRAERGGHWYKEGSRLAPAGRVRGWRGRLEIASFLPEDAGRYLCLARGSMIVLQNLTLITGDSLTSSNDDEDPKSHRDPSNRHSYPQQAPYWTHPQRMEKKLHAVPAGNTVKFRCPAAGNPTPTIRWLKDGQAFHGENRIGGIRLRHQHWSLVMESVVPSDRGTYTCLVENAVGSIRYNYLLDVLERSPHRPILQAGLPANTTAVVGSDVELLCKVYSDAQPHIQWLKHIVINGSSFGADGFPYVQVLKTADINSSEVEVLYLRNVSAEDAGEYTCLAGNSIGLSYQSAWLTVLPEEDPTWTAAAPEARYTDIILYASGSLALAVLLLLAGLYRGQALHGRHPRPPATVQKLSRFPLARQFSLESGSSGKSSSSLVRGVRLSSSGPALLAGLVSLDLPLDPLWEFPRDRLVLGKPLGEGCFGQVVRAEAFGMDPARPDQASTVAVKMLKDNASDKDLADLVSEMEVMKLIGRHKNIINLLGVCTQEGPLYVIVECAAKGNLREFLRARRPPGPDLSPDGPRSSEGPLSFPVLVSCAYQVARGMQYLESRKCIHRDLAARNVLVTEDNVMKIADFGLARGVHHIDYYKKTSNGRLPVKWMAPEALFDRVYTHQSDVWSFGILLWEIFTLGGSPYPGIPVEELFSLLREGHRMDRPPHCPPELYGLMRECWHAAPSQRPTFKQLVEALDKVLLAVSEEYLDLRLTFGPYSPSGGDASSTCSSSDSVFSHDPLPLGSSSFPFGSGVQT
Chain of AKT2 (PKB beta) (P31751 whole entry): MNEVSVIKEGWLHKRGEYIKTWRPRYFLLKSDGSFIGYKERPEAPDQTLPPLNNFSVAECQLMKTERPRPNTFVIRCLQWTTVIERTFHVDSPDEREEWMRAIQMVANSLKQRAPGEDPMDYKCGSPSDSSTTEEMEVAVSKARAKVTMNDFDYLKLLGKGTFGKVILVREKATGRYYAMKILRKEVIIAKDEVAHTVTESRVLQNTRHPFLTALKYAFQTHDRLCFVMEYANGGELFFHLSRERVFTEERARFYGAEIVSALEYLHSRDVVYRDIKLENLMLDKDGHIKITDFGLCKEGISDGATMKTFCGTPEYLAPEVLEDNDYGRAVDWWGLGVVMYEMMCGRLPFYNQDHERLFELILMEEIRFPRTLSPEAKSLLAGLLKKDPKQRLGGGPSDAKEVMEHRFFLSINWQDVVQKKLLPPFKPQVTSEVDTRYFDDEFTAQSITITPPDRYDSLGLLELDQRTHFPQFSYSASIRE
Chain of SRC (P12931 whole entry, looked up): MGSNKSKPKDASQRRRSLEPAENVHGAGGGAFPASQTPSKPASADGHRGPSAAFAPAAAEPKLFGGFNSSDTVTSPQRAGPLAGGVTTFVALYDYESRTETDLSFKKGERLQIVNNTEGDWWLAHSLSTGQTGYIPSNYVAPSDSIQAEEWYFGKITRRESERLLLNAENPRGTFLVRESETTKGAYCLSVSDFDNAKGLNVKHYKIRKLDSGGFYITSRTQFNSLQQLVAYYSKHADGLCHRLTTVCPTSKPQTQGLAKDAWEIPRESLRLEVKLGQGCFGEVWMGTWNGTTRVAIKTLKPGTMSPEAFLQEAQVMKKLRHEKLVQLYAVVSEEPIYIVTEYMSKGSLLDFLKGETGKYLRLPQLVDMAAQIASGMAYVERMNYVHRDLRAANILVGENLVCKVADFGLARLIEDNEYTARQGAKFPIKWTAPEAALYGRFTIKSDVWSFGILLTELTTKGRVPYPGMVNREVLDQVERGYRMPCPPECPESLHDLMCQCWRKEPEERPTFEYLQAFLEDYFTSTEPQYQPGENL

`Nc1cc(N)c2c(c1)C(=O)NC2=O` [RJ1, 4,6-diaminoisoindoline-1,3-dione] was tested, and the inhibition at 10 µM (TEK (Tie2); read-out: % Inhibition) was 20%, the inhibition at 10 µM (TEK (Tie2); read-out: % Inhibition class) was < 40% and the inhibition at 10 µM (JAK1; read-out: % Inhibition) was 9%. The inhibition at 10 µM (JAK1; read-out: % Inhibition class) was < 40%, the inhibition at 10 µM (FGFR4; read-out: % Inhibition) was 20% and the inhibition at 10 µM (FGFR4; read-out: % Inhibition class) was < 40%. The inhibition at 10 µM (EPHB2; read-out: % Inhibition) was 10%, the inhibition at 10 µM (EPHB2; read-out: % Inhibition class) was < 40% and the inhibition at 10 µM (EPHA1; read-out: % Inhibition) was 15%. The inhibition at 10 µM (EPHA1; read-out: % Inhibition class) was < 40%, the inhibition at 10 µM ([1]; read-out: % Inhibition) was 2% and the inhibition at 10 µM ([1]; read-out: % Inhibition class) was < 40%. It also gave an inhibition at 10 µM (AURKB (Aurora B); read-out: % Inhibition) of 63%, an inhibition at 10 µM (AURKB (Aurora B); read-out: % Inhibition class) of 40 to 80% and an inhibition at 10 µM (FYN; read-out: % Inhibition) of 17%. The inhibition at 10 µM (FYN; read-out: % Inhibition class) was < 40%, the inhibition at 10 µM (JAK2 JH1 JH2; read-out: % Inhibition) was 15% and the inhibition at 10 µM (JAK2 JH1 JH2; read-out: % Inhibition class) was < 40%. For the same molecule, the inhibition at 10 µM (HCK; read-out: % Inhibition) was 21%, the inhibition at 10 µM (HCK; read-out: % Inhibition class) was < 40% and the “% Inhibition” value (GSG2 (Haspin); 10 μM) was 34% and 65%. The inhibition at 10 µM (GSG2 (Haspin); read-out: % Inhibition class) was < 40%, the inhibition at 10 µM (RAF1 (cRAF) Y340D Y341D; read-out: % Inhibition) was 6% and the inhibition at 10 µM (RAF1 (cRAF) Y340D Y341D; read-out: % Inhibition class) was < 40%. The inhibition at 10 µM (BRAF; read-out: % Inhibition) was 19%, the inhibition at 10 µM (BRAF; read-out: % Inhibition class) was < 40% and the inhibition at 10 µM (FLT1 (VEGFR1); read-out: % Inhibition) was 18%. For the same molecule, the inhibition at 10 µM (FLT1 (VEGFR1); read-out: % Inhibition class) was < 40%, the inhibition at 10 µM (FGFR1; read-out: % Inhibition) was 51% and the inhibition at 10 µM (FGFR1; read-out: % Inhibition class) was 40 to 80%. The inhibition at 10 µM (JAK2; read-out: % Inhibition) was 22%, the inhibition at 10 µM (JAK2; read-out: % Inhibition class) was < 40% and the inhibition at 10 µM (TYRO3 (RSE); read-out: % Inhibition) was 25%. The inhibition at 10 µM (TYRO3 (RSE); read-out: % Inhibition class) was < 40%, the inhibition at 10 µM (YES1; read-out: % Inhibition) was 24% and the inhibition at 10 µM (YES1; read-out: % Inhibition class) was < 40%. For the same molecule, the inhibition at 10 µM (SRC; read-out: % Inhibition) was 9%, the inhibition at 10 µM (SRC; read-out: % Inhibition class) was < 40% and the inhibition at 10 µM (CHEK2 (CHK2); read-out: % Inhibition) was 38%. For the same molecule, the inhibition at 10 µM (CHEK2 (CHK2); read-out: % Inhibition class) was < 40%, the inhibition at 10 µM (IKBKB (IKK beta); read-out: % Inhibition) was 16% and the inhibition at 10 µM (IKBKB (IKK beta); read-out: % Inhibition class) was < 40%. For the same molecule, the inhibition at 10 µM (CSNK1E (CK1 epsilon); read-out: % Inhibition) was 33%, the inhibition at 10 µM (CSNK1E (CK1 epsilon); read-out: % Inhibition class) was < 40% and the inhibition at 10 µM (MET (cMet); read-out: % Inhibition) was -4%. The inhibition at 10 µM (MET (cMet); read-out: % Inhibition class) was < 40%, the inhibition at 10 µM (AKT1 (PKB alpha); read-out: % Inhibition) was 11% and the inhibition at 10 µM (AKT1 (PKB alpha); read-out: % Inhibition class) was < 40%. For the same molecule, the inhibition at 10 µM (AKT2 (PKB beta); read-out: % Inhibition) was 9%, the inhibition at 10 µM (AKT2 (PKB beta); read-out: % Inhibition class) was < 40% and the inhibition at 10 µM (CSF1R (FMS); read-out: % Inhibition) was 26%. The inhibition at 10 µM (CSF1R (FMS); read-out: % Inhibition class) was < 40%, the inhibition at 10 µM (BRAF V599E; read-out: % Inhibition) was 22% and the inhibition at 10 µM (BRAF V599E; read-out: % Inhibition class) was < 40%. For the same molecule, the inhibition at 10 µM (NEK2; read-out: % Inhibition) was -20%, the inhibition at 10 µM (NEK2; read-out: % Inhibition class) was < 40% and the inhibition at 10 µM (CDK5/p25; read-out: % Inhibition) was 27%. For the same molecule, the inhibition at 10 µM (CDK5/p25; read-out: % Inhibition class) was < 40%, the inhibition at 10 µM (MST4; read-out: % Inhibition) was 52% and the inhibition at 10 µM (MST4; read-out: % Inhibition class) was 40 to 80%. It also gave an inhibition at 10 µM (CHEK1 (CHK1); read-out: % Inhibition) of 72% and an inhibition at 10 µM (CHEK1 (CHK1); read-out: % Inhibition class) of 40 to 80%.

From US11912660B2, “S6K1 protein kinase inhibitors as cancer therapeutics” (Xavier University of Louisiana, priority 2020, dated 2024)
